Measurements as given in patent US10736902B2, “Method of treating triple negative breast cancer” (GEISTLICH PHARMA AG, priority 2016, dated 2020).
Where two headings read alike, the source gives them in different places.

Columns and labels:
[1] = Water solubility / isotonicity; type: physicochemical
[2] = Wound healing after administration during or after surgery; settings: administered during surgery and immediately after surgery
[3] = system: human peripheral blood monocytes; assay: Safety in non-neoplastic cells: cell death of monocytes; type: cell-based; settings: for cell death in human peripheral blood monocytes: 100 microMol up to 5000 microMol; for effect on peripherally derived human monocytes: high doses (5 mM), after 24 hours (FIG. 7B)
[4] = Half-life in human fresh blood at 37° C.; type: in vitro ADME; settings: for half-life: human, fresh whole blood
Protocol: The half-life of 2250 was measured in human fresh blood at 37° C.

[5] = system: ER negative breast cancer cells (BT-20 and MDA-MB-231) and ER positive cells (BT-474 and MCF-7); assay: Apoptosis/necrosis (annexin V / propidium iodide) and ROS in breast cancer cells; type: cell-based; settings: for dose dependence of cell death: ER-positive and ER-negative breast cancer cells, increasing concentrations, most pronounced with TNBC cells; for generation of ROS: substantially reduced by NAC, significantly increased with BSO
Protocol: Methods: Primary and metastatic ER negative breast cancer cells (BT-20 and MDA-MB-231) and ER positive cells (BT-474 and MCF-7) were separately treated with increasing concentrations of Taurolidine and 2250 as shown in FIG. 7A and FIG. 8A. Apoptosis and necrosis were evaluated based on phosphatidylserine externalization using annexin V and propidium iodide (PI). The contribution of caspases 3, 8 and 9 on apoptosis, and autophagy was evaluated by both flow cytometry and western blotting. The impact of reactive oxygen species (ROS) was evaluated using the radical scavenger agent n-acetylcysteine (NAC) and buthionine-sulfoximine (BSO), a glutathione-depleting agent. Necroptosis was evaluated using nescrostatin-1, a potent inhibitor of the process.

[6] = system: tumor stem cells; assay: Tumor stem cell killing in tissue culture in vitro; type: cell-based

SMILES: O=S1(=O)CCOCN1 [C-2250, Tetrahydro1,4,5-oxathiazin-4-dioxide]
- solubility in water ([1]; no PVP necessary): very soluble in water
- concentration of isotonic solution ([1]; solution): 3.2%
- effect on wound healing [2]: do not hinder wound healing
- cell death in human peripheral blood monocytes [3]: did not induce any significant cell death
- effect on peripherally derived human monocytes [3]: no significant effect
- Concentration of 2250 measured ([4]; human fresh blood, 37° C., 0-1 hours): 50 ppm
- Concentration of 2250 measured ([4]; human fresh blood, 37° C., 2 hours): 47.7 ppm
- half-life ([4]; human blood, read-out: half-life in human blood): > 24 h
- half-life ([4]; human fresh blood, 37° C., calculated from measured concentrations, read-out: half-life (calculated) (converted)): ~40 h
- dose dependence of cell death [5]: Dose-dependent increases in cell death
- generation of ROS [5]: induced generation of ROS

SMILES: O=S1(=O)CCN(CN2CCS(=O)(=O)NC2)CN1 [taurolidine, reference compound]
- cell death in human peripheral blood monocytes [3]: did not induce any significant cell death
- effect on peripherally derived human monocytes [3]: no significant effect
- half-life ([4]; human blood, same test, read-out: half-life in human blood): ~0.5 h
- killing of tumor stem cells [6]: kill tumor stem cells
- concentration effective at killing tumor stem cells ([6]; tissue culture in vitro): 0.01 µg/mL
- dose dependence of cell death [5]: Dose-dependent increases in cell death
- generation of ROS [5]: induced generation of ROS

SMILES: O=S1(=O)CCNCN1 [taurultam]
- killing of tumor stem cells [6]: kill tumor stem cells
